The results in this text go back to BindingDB's records for doi:10.1016/j.bmcl.2007.07.021 (Boehringer Ingelheim Pharmaceuticals, 2007).

For the experiment, the target named is T1, Mineralocorticoid receptor (Homo sapiens, UniProt P08235).
T1 sequence (P08235 whole entry): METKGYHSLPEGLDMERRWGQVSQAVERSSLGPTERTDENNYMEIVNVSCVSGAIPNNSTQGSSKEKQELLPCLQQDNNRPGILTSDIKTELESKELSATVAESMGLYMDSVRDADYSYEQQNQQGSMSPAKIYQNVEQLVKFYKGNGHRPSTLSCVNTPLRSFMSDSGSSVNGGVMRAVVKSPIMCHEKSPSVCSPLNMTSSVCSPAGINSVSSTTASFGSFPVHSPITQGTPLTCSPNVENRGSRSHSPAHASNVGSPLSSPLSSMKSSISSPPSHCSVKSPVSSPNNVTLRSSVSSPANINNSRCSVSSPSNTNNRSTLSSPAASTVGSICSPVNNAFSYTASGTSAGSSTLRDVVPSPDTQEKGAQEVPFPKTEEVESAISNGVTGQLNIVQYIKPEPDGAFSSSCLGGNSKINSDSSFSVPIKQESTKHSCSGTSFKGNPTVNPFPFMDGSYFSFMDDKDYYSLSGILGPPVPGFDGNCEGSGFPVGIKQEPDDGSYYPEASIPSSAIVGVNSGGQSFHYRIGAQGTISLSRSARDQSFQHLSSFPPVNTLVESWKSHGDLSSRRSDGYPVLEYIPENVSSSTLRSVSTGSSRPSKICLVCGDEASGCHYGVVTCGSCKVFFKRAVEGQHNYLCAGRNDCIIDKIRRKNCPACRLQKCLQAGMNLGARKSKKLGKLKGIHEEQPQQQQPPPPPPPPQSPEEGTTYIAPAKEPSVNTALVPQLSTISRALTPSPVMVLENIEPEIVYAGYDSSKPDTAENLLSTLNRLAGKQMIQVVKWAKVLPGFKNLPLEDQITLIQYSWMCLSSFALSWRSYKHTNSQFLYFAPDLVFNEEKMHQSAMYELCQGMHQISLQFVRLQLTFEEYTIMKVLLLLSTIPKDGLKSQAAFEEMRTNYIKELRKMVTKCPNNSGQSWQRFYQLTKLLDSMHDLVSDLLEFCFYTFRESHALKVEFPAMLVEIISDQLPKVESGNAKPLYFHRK
The experiment can be described thus: Fluorescence Polarization Competitive Binding Assay. The text has this:
IC50 values shown are means of a single experiment done in duplicate 11-point concentration-effect curves.
On the technique in general: In fluorescence polarisation assays a small probe gives low polarisation when free and higher when bound to something large.

`C=CCOC(C)C1=CC(C)(C)Nc2ccc(-c3ccccc3OC)cc21` (stereo unspecified) [6-(2-methoxyphenyl)-2,2-dimethyl-4-[1-(prop-2-en-1-yloxy)ethyl]-1,2-dihydroquinoline] showed an IC50 of 970 nM. That is a sub-micromolar value.

As a reminder, the IC50 is the concentration that inhibits the measured activity by half. Low values mean higher potency, high ones lower potency.
